From patent publication US6451804B1, “Heteroalkylamino-substituted bicyclic nitrogen heterocycles” (Syntex (U.S.A.) LLC, priority 1999, dated 2002)

Tests used:
p38 MAP kinase = target: T1, p38 MAP kinase (Homo sapiens, UniProt Q16539); assay: In vitro p38 MAP kinase inhibition assay (transfer of γ-phosphate from γ-33P-ATP to Myelin Basic Protein); assay type: biochemical; conditions: phosphorylated recombinant p38 MAP kinase, MBP substrate
T1 construct: made in house; host or cells: E. coli (co-expressed with SEK-1 and MEKK)
T1 sequence (Q16539 whole entry): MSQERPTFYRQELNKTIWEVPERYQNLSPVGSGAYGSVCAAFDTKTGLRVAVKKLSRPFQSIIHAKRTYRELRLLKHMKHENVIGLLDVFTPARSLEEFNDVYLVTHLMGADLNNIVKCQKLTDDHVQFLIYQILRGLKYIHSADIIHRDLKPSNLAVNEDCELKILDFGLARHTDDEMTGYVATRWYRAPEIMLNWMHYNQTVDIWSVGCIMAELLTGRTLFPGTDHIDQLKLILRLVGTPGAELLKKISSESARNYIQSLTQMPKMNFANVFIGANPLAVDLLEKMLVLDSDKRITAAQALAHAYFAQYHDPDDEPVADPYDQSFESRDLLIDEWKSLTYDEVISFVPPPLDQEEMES
Description: This example illustrates a p38 (MAP) kinase in vitro assay useful for evaluating the compounds of the present invention.
The p38 MAP kinase inhibitory activity of compounds of this invention in vitro was determined by measuring the transfer of the γ-phosphate from γ-^33P-ATP by p38 kinase to Myelin Basic Protein (MBP), using a minor modification of the method described in Ahn, et al., J. Biol. Chem. 266:4220-4227 (1991).
The phosphorylated form of the recombinant p38 MAP kinase was co-expressed with SEK-1 and MEKK in E. Coli (see, Khokhlatchev, et al., J. Biol. Chem. 272:11057-11062 (1997)) and then purified by affinity chromatography using a Nickel column.
The phosphorylated p38 MAP kinase was diluted in kinase buffer (20 mM 3-(N-morpholino)propanesulfonic acid, pH 7.2, 25 mM β-glycerol phosphate, 5 mM ethylene glycol-bis(beta-aminoethyl ether)-N,N,N′,N′-tetraacetic acid, 1 mM sodium ortho-vanadate, 1 mM dithiothreitol, 40 mM magnesium chloride). Test compound dissolved in DMSO or only DMSO (control) was added and the samples were incubated for 10 minutes at 30° C. The kinase reaction was initiated by the addition of a substrate cocktail containing MBP and γ-^33P-ATP. After incubating for an additional 20 minutes at […], the reaction was terminated by adding 0.75% phosphoric acid. The phosphorylated MBP was then separated from the residual γ-^33P-ATP using a phosphocellulose membrane (Millipore, Bedfrod, Mass.) and quantitated using a scintillation counter (Packard, Meriden, Conn.).

Structure (SMILES)	IC50 (p38 MAP kinase) [µM]	melting point [°C]
Cc1ccccc1N1Cc2cnc(NCC(C)(C)CN)nc2N(C)C1=O [Compound 3-3]	< 10	–
Cc1ccccc1N1Cc2cnc(NC(C)(C)CO)nc2N(C)C1=O [Compound 3-12]	< 10	–
O=C1N(c2ccccc2Cl)Cc2cnc(N[C@H]3CC[C@H](O)CC3)nc2N1CC(F)(F)F [Compound 3-60, 3-(2-chlorophenyl)-7-(trans-4-hydroxycyclohexylamino)-1-(2,2,2-trifluoroethyl)-3,4-dihydropyrimido[4,5-d]pyrimidin-2(1H)-one]	< 10	130 to 133.5

More lines, now with the values ahead:

IC50 (p38 MAP kinase) [µM]	melting point [°C]	Structure (SMILES)
< 10	–	CCOC(=O)N1CCC(Nc2ncc3c(n2)NC(=O)N(c2ccccc2Cl)C3)CC1 [Compound 2-28, 3-(2-chlorophenyl)-7-(1-ethoxycarbonylpiperidin-4-ylamino)-3,4-dihydropyrimido[4,5-d]pyrimidin-2(1H)-one]
< 10	183 to 235	CN1C(=O)N(c2ccccc2Cl)Cc2cnc(NCC(C)(C)CN)nc21 [Compound 3-1]
